Experiments:
human TLR8 = target: T1, human TLR8 (Homo sapiens, UniProt Q9NR97); assay: Agonistic activity of compounds on HEK-Blue hTLR8 cells (QUANTI-Blue reporter, OD620); type: cell-based; details: for EC50 / Emax: HEK-Blue hTLR8 cells; for EC50: 20 hours incubation; for Emax: OD620 at which the activation effect reached the maximum; for activation effect on human TLR8: summary in words
T1 construct: host or cells: HEK-Blue hTLR8 cells (HEK293-derived reporter line; that the line is stably transfected with the human TLR8 gene is own knowledge of the vendor's product)
T1 sequence (Q9NR97 27-1041): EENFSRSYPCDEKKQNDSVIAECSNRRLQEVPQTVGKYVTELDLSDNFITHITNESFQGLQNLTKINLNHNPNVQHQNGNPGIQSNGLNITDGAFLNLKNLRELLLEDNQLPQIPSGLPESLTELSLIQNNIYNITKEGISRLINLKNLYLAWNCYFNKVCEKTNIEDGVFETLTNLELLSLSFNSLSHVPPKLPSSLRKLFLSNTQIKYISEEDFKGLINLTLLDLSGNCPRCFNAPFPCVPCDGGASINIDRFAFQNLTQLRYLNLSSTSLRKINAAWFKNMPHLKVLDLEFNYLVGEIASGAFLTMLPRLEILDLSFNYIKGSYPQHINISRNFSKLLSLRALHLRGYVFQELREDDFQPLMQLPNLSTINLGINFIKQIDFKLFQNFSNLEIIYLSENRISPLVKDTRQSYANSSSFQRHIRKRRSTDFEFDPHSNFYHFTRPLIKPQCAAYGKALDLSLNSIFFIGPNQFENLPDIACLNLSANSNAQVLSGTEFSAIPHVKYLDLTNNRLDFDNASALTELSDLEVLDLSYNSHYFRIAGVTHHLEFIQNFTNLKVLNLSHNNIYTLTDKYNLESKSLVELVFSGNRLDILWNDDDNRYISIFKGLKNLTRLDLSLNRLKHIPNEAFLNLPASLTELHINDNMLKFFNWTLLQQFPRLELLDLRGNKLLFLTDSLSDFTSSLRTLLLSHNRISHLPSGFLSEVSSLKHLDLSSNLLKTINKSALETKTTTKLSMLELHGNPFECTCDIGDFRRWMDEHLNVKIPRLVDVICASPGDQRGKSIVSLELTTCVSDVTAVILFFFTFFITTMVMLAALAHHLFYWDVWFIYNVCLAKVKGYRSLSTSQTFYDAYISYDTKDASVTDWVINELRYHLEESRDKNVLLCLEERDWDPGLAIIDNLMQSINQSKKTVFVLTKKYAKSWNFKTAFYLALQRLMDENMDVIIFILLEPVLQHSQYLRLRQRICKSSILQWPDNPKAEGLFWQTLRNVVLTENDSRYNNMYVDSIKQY
Procedure: • 1. HEK-Blue hTLR8 cells (Invivogen) were cultured in DMEM medium (Hyclone) containing 10% FBS heat-inactivated fetal bovine serum (Corning). On the day of detection, the cell state was observed under a microscope, the cells were collected and resuspended, and the cell concentration was adjusted after counting, 50 µL per well, the total amount of cells was 2×10^4, and the cells were inoculated in a 96-well plate. • 2. After the cells adhered to the wall overnight, 50 µL of the test compound at different concentrations was added to the well plate, so that the final concentrations were 100 µM, 25 µM, 6.25 µM, 1.56 µM, 0.39 µM, 0.10 µM, 0.02 µM, 0.006 µM, 0 µM, or 100 µM, 33.3 µM, 11.11 µM, 3.70 µM, 1.23 µM, 0.41 µM, 0.14 µM, 0.05 µM, 0 µM, and the final concentration of DMSO was 1%. The compound was incubated with the cells in a 37°C, 5% CO2 incubator for 20 hours. • 3. After the incubation, observation was performed under microscope to determine the maximum signal well, the state of the cells with the highest and lowest concentrations of the compound, and whether the compound will crystalize at high concentration. 10 µL of cell culture supernatant was transferred to a new 96-well transparent plate, added with 90 µL of QUANTI-Blue (Invivogen) detection reagent to each well, incubated at 37°C for 3 hours, and OD620 was read with a multifunctional microplate reader (BMG LABTECH). • 4. EC50 was calculated by fitting with Graphpad Prism software log(agonist) vs. Response - Variable slope, and Emax was the OD620 at which the activation effect of the test compound reached the maximum.

human TLR7 = target: T2, human TLR7 (Homo sapiens, UniProt Q9NYK1); assay: Agonistic activity of compounds on HEK-Blue hTLR7 cells (QUANTI-Blue reporter, OD620); type: cell-based; details: for EC50 / Emax: HEK-Blue hTLR7 cells; for EC50: 20 h incubation; for Emax: OD620 at which the activation effect reached the maximum; for activation effect on human TLR7: summary in words
T2 construct: host or cells: HEK-Blue hTLR7 cells (HEK293-derived reporter line; that the line is stably transfected with the human TLR7 gene is own knowledge of the vendor's product)
T2 sequence (Q9NYK1 27-1049): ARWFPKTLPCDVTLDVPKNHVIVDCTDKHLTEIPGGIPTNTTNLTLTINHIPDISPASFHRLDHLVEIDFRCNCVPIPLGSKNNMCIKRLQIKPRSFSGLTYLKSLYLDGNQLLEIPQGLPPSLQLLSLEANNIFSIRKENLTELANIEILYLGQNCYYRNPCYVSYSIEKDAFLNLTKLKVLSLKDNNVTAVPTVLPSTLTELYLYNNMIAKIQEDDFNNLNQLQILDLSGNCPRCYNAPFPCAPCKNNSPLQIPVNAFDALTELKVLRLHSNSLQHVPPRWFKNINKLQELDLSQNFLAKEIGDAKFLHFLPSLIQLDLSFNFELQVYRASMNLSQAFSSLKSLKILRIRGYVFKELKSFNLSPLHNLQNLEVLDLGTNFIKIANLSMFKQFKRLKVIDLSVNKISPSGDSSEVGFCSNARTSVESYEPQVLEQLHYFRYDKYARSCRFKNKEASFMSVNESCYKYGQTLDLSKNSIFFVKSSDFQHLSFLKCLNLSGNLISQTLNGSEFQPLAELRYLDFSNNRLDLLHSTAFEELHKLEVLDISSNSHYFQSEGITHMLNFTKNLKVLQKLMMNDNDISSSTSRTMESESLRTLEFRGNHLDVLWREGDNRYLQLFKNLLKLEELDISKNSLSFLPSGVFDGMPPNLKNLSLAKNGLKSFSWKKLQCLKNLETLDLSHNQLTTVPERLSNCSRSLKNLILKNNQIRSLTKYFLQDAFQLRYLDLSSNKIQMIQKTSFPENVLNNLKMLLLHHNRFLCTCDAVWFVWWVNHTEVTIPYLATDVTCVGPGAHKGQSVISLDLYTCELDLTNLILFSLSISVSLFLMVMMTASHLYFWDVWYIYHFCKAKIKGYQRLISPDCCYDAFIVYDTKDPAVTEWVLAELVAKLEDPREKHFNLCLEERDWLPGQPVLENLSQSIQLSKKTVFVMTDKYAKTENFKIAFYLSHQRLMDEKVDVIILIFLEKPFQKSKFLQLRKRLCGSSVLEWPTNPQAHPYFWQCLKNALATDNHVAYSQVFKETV
Procedure: • 1. HEK-Blue hTLR7 cells (Invivogen) were cultured in DMEM medium (Hyclone) containing 10% FBS heat-inactivated fetal bovine serum (Corning). On the day of detection, the cell state was observed under a microscope, the cells were collected and resuspended, and the cell concentration was adjusted after counting, 50 µL per well, the total amount of cells was 2×10^4, and the cells were inoculated in a 96-well plate. • 2. After the cells adhered to the wall overnight, 50 µL of the test compound at different concentrations was added into the well plate, so that the final concentrations were 100 µM, 33.3 µM, 11.11 µM, 3.70 µM, 1.23 µM, 0.41 µM, 0.14 µM, 0.05 µM, 0 µM, and the final concentration of DMSO was 1%. The compound was incubated with the cells in a 37°C, 5% CO2 incubator for 20 h. • 3. After the incubation, observation under microscope was performed to determine the maximum signal well, the states of the cells with the highest and lowest concentrations of the compound, and whether the compound will crystalize at high concentration. 10 µL of cell culture supernatant was taken and transferred to a new 96-well transparent plate, 90 µL of QUANTI-Blue (Invivogen) detection reagent was added to each well, and incubated at 37°C for 3 h, and OD620 was read with a multifunctional microplate reader (BMG LABTECH). • 4. EC50 was calculated by fitting with Graphpad Prism software log(agonist) vs. response - Variable slope, and Emax was the OD620 at which the activation effect of the test compound reached the maximum.

| EC50 (human TLR8) [µM] | Emax (human TLR8) [OD620] | activation effect on human TLR8 (human TLR8) | EC50 (human TLR7) [µM] | Emax (human TLR7) [OD620] | activation effect on human TLR7 (human TLR7) | Compound |
| --- | --- | --- | --- | --- | --- | --- |
| 11.9 | 0.84 | strong activation effect | 0.27 | 1.59 | strong activation effect | CCCCc1nc2c(N)nc3ccsc3c2n1CC1CCN(C)CC1 [Compound 27, 2-butyl-1-[(1-methylhexahydropyridin-4-yl)methyl] thieno[3,2-b]imidazo[4,5-d]pyridine-4-amine] |
| 18.9 | 0.67 | strong activation effect | 0.03 | 1.46 | strong activation effect | CCCCc1nc2c(N)nc3cc(C4CCNCC4)sc3c2n1CC1CCOCC1 [Compound 33, 2-butyl-7-(hexahydropyridin-4-yl)-1-(3,4,5,6-tetrahydro-2H-pyran-4-ylmethyl)thieno[3,2-b]imidazo[4,5-d]pyridine-4-amine] |

Reference: EP4458830A1, “TRICYCLIC COMPOUND, METHOD FOR PREPARING SAME, AND USE THEREOF” (Sichuan Kelun-Biotech Biopharmaceutical Co., Ltd., priority 2021, dated 2023)
